Here are results for 33 compounds from PubChem BioAssay AID588588 (Sanford-Burnham Center for Chemical Genomics, 2011).

Each structure is given as a SMILES string. Values joined by “and” are separate entries in the source; they are usually repeats but may differ in a detail not shown here. Equal values may be shown once. Active and inactive are the calls of the source. No rule for the calls is given here. A value given as a limit tells only on which side of the number the result lay.

The target of the test is glucose-6-phosphate dehydrogenase-6-phosphogluconolactonase (Plasmodium falciparum 3D7). The test is described as follows: inhibition of P. falciparum G6PD activity – biochemical, end-point NADPH detection, orthogonal assay, SAR follow-up (AID 588588). Conditions: recombinant PfG6PD-6PGL, direct NADPH end-point detection.
Regarding `CC1Cc2ccccc2N1S(=O)(=O)c1nnc(NC(=O)c2cccc(F)c2)s1` (stereo not drawn), the IC50 (usually the concentration needed to halve the response being measured) is > 80 µM (inactive). As to `CCN1CCCC1CNC(=O)c1ccc2c(c1)NC(=O)CO2` (stereo not drawn), the IC50 was > 80 µM (inactive).

Turning to `CN(C)CCNC(=O)c1ccc2c(c1)NC(=O)/C(=C/c1ccccc1F)S2`, the IC50 is > 80 µM (inactive).

On to `Cc1cccc(C(=O)Nc2nnc(S(=O)(=O)N3CCCCCC3)s2)c1`, for which the IC50 was > 80 µM (inactive).

Turning to `CCN1CCCC1CNC(=O)c1ccc2c(c1)NC(=O)/C(=C/c1ccccc1C)S2` (stereo not drawn), the IC50 was > 80 µM (inactive).

For the compound `CCN1CCCC1CNC(=O)c1ccc2c(c1)N(Cc1cccc(F)c1)C(=O)c1ccccc1S2` (stereo not drawn), the IC50 is > 80 µM (inactive). Regarding `CCN1CCCC1CNC(=O)c1ccc2c(c1)N(Cc1ccccc1Cl)C(=O)c1ccccc1S2` (stereo not drawn), the IC50 is > 80 µM (inactive). Consider `Cc1cccc(C(=O)Nc2nnc(S(=O)(=O)N3CCOCC3)s2)c1`, for which the IC50 was > 80 µM (inactive). The figure for `CCN1CCCC1CNC(=O)c1ccc2c(c1)NC(=O)/C(=C/c1ccccc1F)S2` (stereo not drawn) is > 80 µM (inactive); for `Cc1cccc(N2CCN(CCNC(=O)c3ccc4c(c3)NC(=O)c3ccccc3S4)CC2)c1C` it is > 80 µM (inactive); for `O=C(NCCN1CCCC1)c1ccc2c(c1)NC(=O)c1ccccc1O2` it is > 80 µM (inactive). Take `CCN1CCCC1CNC(=O)c1ccc2c(c1)NC(=O)c1ccccc1S2` (stereo not drawn): the IC50 is 6.64 µM and 9.89 µM. For the compound `COc1ccc(C(=O)Nc2nnc(S(=O)(=O)N3CCCCCC3)s2)cc1OC`, the IC50 is > 80 µM (inactive).

As to `O=C(NCCN1CCCC1)c1ccc2c(c1)NC(=O)c1ccccc1S2`, the IC50 is > 80 µM (inactive). The figure for `O=C(Nc1nnc(S(=O)(=O)N2CCOCC2)s1)c1cccc(F)c1` is > 80 µM (inactive); for `Cc1ccc(C(=O)Nc2nnc(S(=O)(=O)N3c4ccccc4CC3C)s2)cc1` (stereo not drawn) it is > 80 µM (inactive); for `CCN1CCCC1CNC(=O)c1ccc2c(c1)NC(=O)/C(=C/c1ccccc1OC)S2` (stereo not drawn) it is > 80 µM (inactive). Regarding `COc1ccc(/C=C2/Sc3ccc(C(=O)NCCN4CCCCCC4)cc3NC2=O)cc1`, the IC50 was > 80 µM (inactive). As to `COc1cccc(/C=C2/Sc3ccc(C(=O)NCCN4CCCCCC4)cc3NC2=O)c1`, the IC50 was > 80 µM (inactive).

`O=C1COc2ccc(C(=O)NCCN3CCCC3)cc2N1`: the IC50 was > 80 µM (inactive). With `CN(CCNC(=O)c1ccc2c(c1)NC(=O)c1ccccc1S2)C1CCCCC1`, the IC50 was > 80 µM (inactive). Under `CCN(CC)CCNC(=O)c1ccc2c(c1)NC(=O)c1ccccc1S2` stands 67.3 µM and 69.8 µM; under `COc1cccc(/C=C2/Sc3ccc(C(=O)NCCN4CCCC4)cc3NC2=O)c1`, > 80 µM (inactive). For `O=C(Nc1nnc(S(=O)(=O)N2CCCCCC2)s1)c1ccccc1`, the IC50 is > 80 µM (inactive). For the compound `O=C1COc2ccc(C(=O)NCCN3CCCCC3)cc2N1`, the IC50 is > 80 µM (inactive). Take `CCN1CCC[C@@H]1CNC(=O)c1ccc2c(c1)NC(=O)/C(=C/c1ccccc1F)S2`: the IC50 was > 80 µM (inactive). For the compound `Cc1ccc(CN2C(=O)c3ccccc3Sc3ccc(C(=O)NCCN(C)C)cc32)cc1`, the IC50 was > 80 µM (inactive). Take `CC1Cc2ccccc2N1S(=O)(=O)c1nnc(NC(=O)c2cccc(Br)c2)s1` (stereo not drawn): the IC50 was > 80 µM (inactive).

Take `O=C1Nc2cc(C(=O)NCc3ccccc3)ccc2S/C1=C\c1ccccc1F`: the IC50 was > 80 µM (inactive). The figure for `CN(C)CCNC(=O)c1ccc2c(c1)NC(=O)/C(=C\c1ccccc1F)S2` is > 80 µM (inactive).

Take `CCN1CCCC1CNC(=O)c1ccc2c(c1)N(Cc1ccc(C(F)(F)F)cc1)C(=O)c1ccccc1S2` (stereo not drawn): the IC50 is > 80 µM (inactive). Under `CCCN(CCC)CCNC(=O)c1ccc2c(c1)NC(=O)/C(=C/c1ccccc1)S2` stands > 80 µM (inactive); under `O=C(NCCN1CCOCC1)c1ccc2c(c1)NC(=O)c1ccccc1O2`, > 80 µM (inactive).
